According to PubChem BioAssay AID1963972 (Molecular Pharmacology Branch, DTP, NCI, 2024):

System: 945468-187-T-J2-PDC spheroids viability
Assay: Anticancer human tumor 945468-187-T-J2-PDC patient-derived rectal carcinoma cell line growth inhibition [PI3K]
Settings: spheroids with HUVEC and MSC; for IC50: curve of first compound; for viability, T/C: stronger effect = lower value
Summary of the method: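 Tumor cells grown as multi-cell spheroids with HUVEC endothelial cells and MSC fibroblast-like stroma were treated with targeted agents combined with inavolisib, alpelisib, duvelisib or copanlisib. Doses fell in half-log steps from near clinical Cmax, else from 10 microM. Viability was measured.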

[1] = second compound 0.00316 µM, first compound 0.0316 µM
[2] = second compound 0.00316 µM, first compound 0.1 µM
[3] = second compound 0.00316 µM, first compound 0.316 µM
[4] = second compound 0.00316 µM, first compound 1 µM
[5] = second compound 0.01 µM, first compound 0.0316 µM
[6] = second compound 0.01 µM, first compound 0.1 µM
[7] = second compound 0.01 µM, first compound 0.316 µM
[8] = second compound 0.01 µM, first compound 1 µM
[9] = second compound 0.0316 µM, first compound 0.0316 µM
[10] = second compound 0.0316 µM, first compound 0.1 µM
[11] = second compound 0.0316 µM, first compound 0.316 µM
[12] = second compound 0.0316 µM, first compound 1 µM
[13] = second compound 0.1 µM, first compound 0.0316 µM
[14] = second compound 0.1 µM, first compound 0.1 µM
[15] = second compound 0.1 µM, first compound 0.316 µM
[16] = second compound 0.1 µM, first compound 1 µM
[17] = second compound 0.316 µM, first compound 0.0316 µM
[18] = second compound 0.316 µM, first compound 0.1 µM
[19] = second compound 0.316 µM, first compound 0.316 µM
[20] = second compound 0.316 µM, first compound 1 µM
[21] = second compound 1 µM, first compound 0.0316 µM
[22] = second compound 1 µM, first compound 0.1 µM
[23] = second compound 1 µM, first compound 0.316 µM
[24] = second compound 1 µM, first compound 1 µM
[25] = second compound 0.00316 µM, first compound 3.16 µM
[26] = second compound 0.00316 µM, first compound 10 µM
[27] = second compound 0.01 µM, first compound 3.16 µM
[28] = second compound 0.01 µM, first compound 10 µM
[29] = second compound 0.0316 µM, first compound 3.16 µM
[30] = second compound 0.0316 µM, first compound 10 µM
[31] = second compound 0.1 µM, first compound 3.16 µM
[32] = second compound 0.1 µM, first compound 10 µM
[33] = second compound 0.316 µM, first compound 3.16 µM
[34] = second compound 0.316 µM, first compound 10 µM
[35] = second compound 1 µM, first compound 3.16 µM
[36] = second compound 1 µM, first compound 10 µM
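Note: spheroids exposed to compounds for seven days before reading.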

Structure (SMILES): CCN1CCN(Cc2ccc(Nc3ncc(F)c(-c4cc(F)c5nc(C)n(C(C)C)c5c4)n3)nc2)CC1 + COc1c(OCCCN2CCOCC2)ccc2c3n(c(=NC(=O)c4cnc(N)nc4)nc12)CCN3
- IC50 (second compound 0.00316 µM): > 1000 nM
- IC50 (second compound 0.01 µM): > 1000 nM
- IC50 (second compound 0.0316 µM): 704 nM
- IC50 (second compound 0.1 µM): 199 nM
- IC50 (second compound 0.316 µM): < 3.16 nM
- IC50 (second compound 1 µM): < 3.16 nM
- viability, T/C (second compound 0.00316 µM, first compound 0.00316 µM): 107%
- viability, T/C (second compound 0.00316 µM, first compound 0.01 µM): 93.5%
- viability, T/C [1]: 104%
- viability, T/C [2]: 102%
- viability, T/C [3]: 87.6%
- viability, T/C [4]: 75.1%
- viability, T/C (second compound 0.01 µM, first compound 0.00316 µM): 119%
- viability, T/C (second compound 0.01 µM, first compound 0.01 µM): 128%
- viability, T/C [5]: 94.9%
- viability, T/C [6]: 115%
- viability, T/C [7]: 84%
- viability, T/C [8]: 66.2%
- viability, T/C (second compound 0.0316 µM, first compound 0.00316 µM): 120%
- viability, T/C (second compound 0.0316 µM, first compound 0.01 µM): 110%
- viability, T/C [9]: 92.9%
- viability, T/C [10]: 112%
- viability, T/C [11]: 69%
- viability, T/C [12]: 41.6%
- viability, T/C (second compound 0.1 µM, first compound 0.00316 µM): 105%
- viability, T/C (second compound 0.1 µM, first compound 0.01 µM): 91.8%
- viability, T/C [13]: 93.1%
- viability, T/C [14]: 72.7%
- viability, T/C [15]: 34.4%
- viability, T/C [16]: 22.1%
- viability, T/C (second compound 0.316 µM, first compound 0.00316 µM): 48.7%
- viability, T/C (second compound 0.316 µM, first compound 0.01 µM): 41.2%
- viability, T/C [17]: 39.5%
- viability, T/C [18]: 24.4%
- viability, T/C [19]: 20.2%
- viability, T/C [20]: 21.4%
- viability, T/C (second compound 1 µM, first compound 0.00316 µM): 21.7%
- viability, T/C (second compound 1 µM, first compound 0.01 µM): 20.8%
- viability, T/C [21]: 14.1%
- viability, T/C [22]: 17.9%
- viability, T/C [23]: 14.3%
- viability, T/C [24]: 16.3%

Structure (SMILES): Cn1ncc(Cl)c1-c1cc(C(=O)NC(CN)Cc2cccc(F)c2)sc1Cl (stereo unspecified) + COc1c(OCCCN2CCOCC2)ccc2c3n(c(=NC(=O)c4cnc(N)nc4)nc12)CCN3
- IC50 (second compound 0.00316 µM): > 10000 nM
- IC50 (second compound 0.01 µM): > 10000 nM
- IC50 (second compound 0.0316 µM): 4530 nM
- IC50 (second compound 0.1 µM): 2660 nM
- IC50 (second compound 0.316 µM): < 31.6 nM
- IC50 (second compound 1 µM): < 31.6 nM
- viability, T/C [1]: 109%
- viability, T/C [2]: 75.3%
- viability, T/C [3]: 98.3%
- viability, T/C [4]: 110%
- viability, T/C [25]: 76.8%
- viability, T/C [26]: 50.6%
- viability, T/C [5]: 109%
- viability, T/C [6]: 102%
- viability, T/C [7]: 90.5%
- viability, T/C [8]: 86.6%
- viability, T/C [27]: 77.2%
- viability, T/C [28]: 53.3%
- viability, T/C [9]: 87.3%
- viability, T/C [10]: 82.5%
- viability, T/C [11]: 82.4%
- viability, T/C [12]: 68.9%
- viability, T/C [29]: 54.3%
- viability, T/C [30]: 41.4%
- viability, T/C [13]: 65.6%
- viability, T/C [14]: 84.9%
- viability, T/C [15]: 75.2%
- viability, T/C [16]: 73%
- viability, T/C [31]: 46%
- viability, T/C [32]: 32.2%
- viability, T/C [17]: 38.8%
- viability, T/C [18]: 34.8%
- viability, T/C [19]: 35.4%
- viability, T/C [20]: 28.8%
- viability, T/C [33]: 32.2%
- viability, T/C [34]: 26.1%
- viability, T/C [21]: 18.5%
- viability, T/C [22]: 18.8%
- viability, T/C [23]: 18.2%
- viability, T/C [24]: 19.6%
- viability, T/C [35]: 18.4%
- viability, T/C [36]: 14.2%

Structure (SMILES): Cn1nccc1Nc1nccc(-c2ccn(C(CO)c3ccc(Cl)c(F)c3)c(=O)c2)n1 (stereo unspecified) + COc1c(OCCCN2CCOCC2)ccc2c3n(c(=NC(=O)c4cnc(N)nc4)nc12)CCN3
- IC50 (second compound 0.00316 µM): > 10000 nM
- IC50 (second compound 0.01 µM): > 10000 nM
- IC50 (second compound 0.0316 µM): > 10000 nM
- IC50 (second compound 0.1 µM): > 10000 nM
- IC50 (second compound 0.316 µM): < 31.6 nM
- IC50 (second compound 1 µM): < 31.6 nM
- viability, T/C [1]: 117%
- viability, T/C [2]: 108%
- viability, T/C [3]: 98.9%
- viability, T/C [4]: 83.7%
- viability, T/C [25]: 90.9%
- viability, T/C [26]: 80.7%
- viability, T/C [5]: 99%
- viability, T/C [6]: 93.7%
- viability, T/C [7]: 90.1%
- viability, T/C [8]: 136%
- viability, T/C [27]: 127%
- viability, T/C [28]: 84.2%
- viability, T/C [9]: 91.9%
- viability, T/C [10]: 102%
- viability, T/C [11]: 100%
- viability, T/C [12]: 89.1%
- viability, T/C [29]: 93.5%
- viability, T/C [30]: 89.2%
- viability, T/C [13]: 71%
- viability, T/C [14]: 75.9%
- viability, T/C [15]: 81.1%
- viability, T/C [16]: 82.2%
- viability, T/C [31]: 84.3%
- viability, T/C [32]: 64.9%
- viability, T/C [17]: 39.8%
- viability, T/C [18]: 45.6%
- viability, T/C [19]: 45.3%
- viability, T/C [20]: 41.7%
- viability, T/C [33]: 33.4%
- viability, T/C [34]: 27.8%
- viability, T/C [21]: 18.1%
- viability, T/C [22]: 19.8%
- viability, T/C [23]: 21.8%
- viability, T/C [24]: 18.6%
- viability, T/C [35]: 18.6%
- viability, T/C [36]: 16.8%
